Measurements: publication PMC3639647, “Cloning, Expression, and Purification of Nucleoside Diphosphate Kinase from Acinetobacter baumannii” (Enzyme Research, 2013)

Biological target: T1, Ndk (nucleoside diphosphate kinase) (Acinetobacter baumannii, UniProt B0VKS3)
T1 construct: E. coli BL21(DE3), Ni-NTA
T1 sequence (B0VKS3 1-143): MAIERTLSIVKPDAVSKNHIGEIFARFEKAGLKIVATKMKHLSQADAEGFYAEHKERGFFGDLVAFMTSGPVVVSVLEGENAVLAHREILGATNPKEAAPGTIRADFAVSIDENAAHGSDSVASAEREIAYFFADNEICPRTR
Assay: intrinsic tryptophan/tyrosine fluorescence quenching titration (excitation […] nm)
Format: binding
Settings: pH 7 (neutral), 25 °C, 17 µM protein, ATP 20-100 µM

Nc1ncnc2c1ncn2[C@@H]1O[C@H](COP(=O)(O)OP(=O)(O)OP(=O)(O)O)[C@@H](O)[C@H]1O [ATP]
intrinsic tryptophan/tyrosine fluorescence quenching titration (excitation 280 n): Binding of the substrate ATP with the enzyme was confirmed by the quenching of fluorescence
